Source: patent publication EP0306826A1, “N-(substituted alkylidene)fused bicycloalkylidene and hetero-alkylidene quinolinamines, a process for their preparation and their use as medicaments” (HOECHST-ROUSSEL PHARMACEUTICALS INCORPORATED, priority 1987, dated 1989)

Experiments:
mice = experiment: Dark Avoidance Assay (reversal of scopolamine induced memory deficit); type: in vivo
Method: In this assay mice are tested for their ability to remember an unpleasant stimulus for a period of 24 hours. A mouse is placed in a chamber that contains a dark compartment; a strong incandescent light drives it to the dark compartment, where an electric shock is administered through metal plates on the floor. The animal is removed from the testing apparatus and tested again, 24 hours later, for the ability to remember the electric shock.
If scopolamine, an anticholinergic that is known to cause memory impairment, is administered before an animal's initial exposure to the test chamber, the animal re-enters the dark compartment shortly after being placed in the test chamber 24 hours later. This effect of scopolamine is blocked by an active test compound, resulting in a greater interval before re-entry into the dark compartment.
The test results are expressed as the percent of a group of animals in which the effect of scopolamine is blocked, as manifested by an increased interval between being placed in the test chamber and re-entering the dark compartment.

acetylcholinesterase = acetylcholinesterase (Homo sapiens, UniProt P22303); experiment: Acetylcholinesterase Inhibition Assay (photometric method of Ellman et al.); type: biochemical
Chain of acetylcholinesterase (P22303 32-614): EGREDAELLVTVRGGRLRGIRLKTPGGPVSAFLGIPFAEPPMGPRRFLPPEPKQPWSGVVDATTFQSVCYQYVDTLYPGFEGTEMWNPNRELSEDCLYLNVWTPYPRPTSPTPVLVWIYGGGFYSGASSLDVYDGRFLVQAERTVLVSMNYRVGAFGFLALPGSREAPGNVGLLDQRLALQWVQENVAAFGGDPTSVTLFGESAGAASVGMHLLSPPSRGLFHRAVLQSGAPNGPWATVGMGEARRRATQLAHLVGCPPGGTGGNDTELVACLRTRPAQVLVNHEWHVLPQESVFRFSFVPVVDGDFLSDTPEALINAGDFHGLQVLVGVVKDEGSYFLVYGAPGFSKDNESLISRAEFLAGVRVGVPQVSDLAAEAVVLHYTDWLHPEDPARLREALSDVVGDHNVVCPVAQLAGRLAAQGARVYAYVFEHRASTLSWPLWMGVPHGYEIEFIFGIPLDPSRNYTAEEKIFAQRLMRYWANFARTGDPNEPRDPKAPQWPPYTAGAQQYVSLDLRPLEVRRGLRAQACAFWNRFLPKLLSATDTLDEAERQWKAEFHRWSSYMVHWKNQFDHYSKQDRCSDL

CNC(=O)Oc1ccc2c(c1)[C@]1(C)CCN(C)[C@@H]1N2C [Physostigmine, reference compound]
% of Animals with Scopolamine Induced Memory Deficit Reversal (mice; mouse, in vivo, 0.31 mg/kg): 20%

C(=Nc1c2c(nc3ccccc13)C1CCC2C1)c1ccccc1 (stereo not shown) [1,4-Methano-N-(phenylmethylene)-1,2,3,4-tetrahydro-9-acridinamine]
% of Animals with Scopolamine Induced Memory Deficit Reversal (mice; mice, dose 0.31 mg/kg of body weight, s.c, retest 24 hours later): 27% | IC50 (acetylcholinesterase): 12 µM

FC(F)(F)c1ccc2c(N=Cc3ccccc3)c3c(nc2c1)C1CCC3C1 (stereo not shown) [1,4-Methano-N-(phenylmethylene)-6-trifluoromethyl-1,2,3,4-tetrahydro-9-acridinamine]
IC50 (acetylcholinesterase): 22 µM
